Reference: paper PMC2714806 (2009)
Where “and” joins values, the source holds several entries; their conditions need not be identical. Identical values can stand only once. Entries after “also recorded” stand apart in the source; their conditions may differ. Ends that are not written are not given here.

Experiments:
NMDA receptor = conditions: cited from earlier work
[1] = tested on: NR1a/NR2A-, NR1a/NR2B-, NR1b/NR2A-, and NR1b/NR2B-containing receptors; conditions: cited from earlier work
[2] = tested on: NR1b/2A and NR1b/2B NMDA receptors; type: cell-based; conditions: 40 µM
[3] = type: binding; conditions: pH 6.5
[4] = type: binding; conditions: pH 6.5; remark: listed apart in the source
NR1b/2B NMDA receptor = type: cell-based; conditions: pH 7.35
[5] = type: physicochemical; conditions: pH 6.5
NR1b/2A NMDA receptor = type: cell-based; conditions: pH 7.35
[6] = type: physicochemical; conditions: pH 6.5; remark: listed apart in the source

Substance: GEγγYQγMLγNLRγAEVKKNA-NH2 [con-T[K7γ]]
- inhibition of ion flow through NMDA receptor complexes (NMDA receptor): potent and specific inhibitors

Substance: con-T: naturally-occurring conantokin derived from Conus tulipa (GEEEYQKMLENLREAEVKKNA; ends and bridges not checked; UniProt P17684 1-21, looked up)
- antagonism of NMDA receptor activity ([1]; 40 µM): completely antagonizes NMDA receptor activity at all subunit combinations
- inhibition of current flow through the NMDA receptor (NMDA receptor): potent and selective inhibitor of current flow through the NMDA receptor

Substance: con-T[M8N]: Met8-substituted con-T peptide (GEEEYQKNLENLREAEVKKNA; ends and bridges not checked; UniProt P17684 1-21, looked up, variant M8N)
- NR2A-/NR2B-selectivity [1]: non-selective

Substance: con-T[γ4E,K7γ,V17γ] [con-T-tri]
- NR2A-/NR2B-selectivity [2]: NR2B selective
- Kd [3]: 26 µM
- n (stoichiometry of metal ion binding) [4]: 1.0
- effect on NMDA-evoked current (NR1b/2B NMDA receptor): modest inhibitory activity
- MWapp (apparent molecular weight) [5]: 3320 ± 300 and 6490 ± 450 and 3460 ± 190
- self-association [5]: did not result in marked self-association
- effect on NMDA-evoked current (NR1b/2A NMDA receptor): current potentiation; also recorded: Potentiation of currents
- helicity (in words) [6]: marginal helicity; also recorded: high percentage of helix content; also recorded: negligible helicity; also recorded: highly helical character
